Test results as given in patent EP0589484A1, “1,2-Ethanediol derivative and salt thereof, process for producing the same, and cerebral function-improving agent comprising the same” (TOYAMA CHEMICAL CO., LTD., priority 1989, dated 1990).
Where a name gives a salt, the structure may show the parent alone. Read-outs that look alike come from different tables or passages of the source.

Columns and labels:
[1] = system: ddY female mouse; assay: Effect of test compound on hypoxia (antihypoxic activity); type: in vivo; conditions: po, read-out: Antihypoxic activity (%)
Description: A test compound dissolved in physiological saline (100 mg/kg) was orally administered to a ddY female mouse (5-6 weeks old, each group consisting of 10 mice). After 1 (or 30 minutes*) hour from the administration, each mouse was placed in a 300-ml glass chamber, and a gas mixture consisting of 4% of oxygen and 96% of nitrogen was passed through the chamber at a rate of 5 liters/min. A time from the start of gas passing to the death of each mouse was measured.
To a control mice group was orally administered only physiological saline.
The antihypoxic activity of the test compound was calculated from the following formula: [formula]

[2] = system: ddY male mice; assay: Acute toxicity; type: in vivo, mouse; conditions: 50 mg/kg intravenously, group of 3 ddY male mice
Text: A test compound dissolved in physiological saline was intravenously administered to a group of 3 ddY male mice (5-6 weeks old) to examine the acute toxicity of the test compound.

[3] = biological target: T1, acetylcholinesterase (Mus musculus, UniProt P21836); assay: Inhibitory activity for acetylcholinesterase (method of Ellman et al.); type: biochemical
T1 construct: a mouse cerebral homogenate (as an acetylcholinesterase source); from tissue; host or cells: mouse cerebrum (homogenate)
T1 sequence (P21836 32-614): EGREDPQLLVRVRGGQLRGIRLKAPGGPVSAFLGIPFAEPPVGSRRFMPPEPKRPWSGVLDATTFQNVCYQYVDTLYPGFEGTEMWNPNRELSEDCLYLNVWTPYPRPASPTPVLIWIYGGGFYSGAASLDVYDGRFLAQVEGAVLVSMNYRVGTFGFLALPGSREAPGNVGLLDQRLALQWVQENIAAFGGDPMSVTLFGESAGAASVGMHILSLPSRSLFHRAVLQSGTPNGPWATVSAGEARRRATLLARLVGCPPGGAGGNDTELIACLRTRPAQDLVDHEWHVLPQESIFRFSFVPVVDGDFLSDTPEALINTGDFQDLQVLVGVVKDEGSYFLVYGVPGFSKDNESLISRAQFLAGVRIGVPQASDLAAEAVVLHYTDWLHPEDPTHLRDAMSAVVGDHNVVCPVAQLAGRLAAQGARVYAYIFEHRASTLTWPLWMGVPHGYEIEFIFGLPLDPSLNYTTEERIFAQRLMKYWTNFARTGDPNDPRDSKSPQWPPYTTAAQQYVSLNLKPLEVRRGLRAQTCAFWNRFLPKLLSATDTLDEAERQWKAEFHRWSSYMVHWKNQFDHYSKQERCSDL
Description: A test was conducted in accordance with the method of Ellman et al. [Biochem. Pharmacol., vol. 7, pp. 88-95, 1961].
That is, acetylthiocholine (as a substrate) was added to a phosphate buffer solution containing 5,5'-dithiobis-(2-nitrobenzoic acid) (DTNB), a test compound and a mouse cerebral homogenate (as an acetylcholinesterase source). The resulting mixture was incubated, and the amount of the resulting 5-thio-2-nitrobenzoic acid was photometrically measured at 412 nm.
The inhibitory activity for acetylcholinesterase of the test compound was expressed by the inhibition (%) when the final concentration of the test compound was 10 µg/ml.

[4] = 100 mg/kg orally, placed in chamber (4% oxygen, 96% nitrogen) after 1 hour from the administration, survival time relative to control
[5] = final concentration of the test compound 10 µg/ml, mouse cerebral homogenate, read-out: Inhibition (%)
[6] = 0.5 h, 100 mg/kg orally, placed in chamber (4% oxygen, 96% nitrogen) after 30 minutes from the administration (values marked *), survival time relative to control

Row | SMILES | response vs control in vivo at 100 mg/kg [1, 4] | Acute toxicity [2] | inhibition at 10 µg/mL [3, 5] | response vs control in vivo at 100 mg/kg [1, 6] | also measured
1 | CN(C)CCOCC(O)c1ccc(Oc2ccccc2)cc1 (centres unmarked) [Compound No. 54, 2-[2-(N,N-dimethylamino)ethoxy]-1-[4-(4-phenyloxy)phenyl]ethanol hydrochloride] | 137% | no death case | 83% |  | 
2 | OC(COCCN1CCCC1)c1ccccc1 (centres unmarked) [compound 6] |  | no death case | 13% |  | 
3 | CC(OCCN(C)C)C(O)c1ccccc1 (centres unmarked) [compound 30] |  | no death case | 22% |  | 
4 | CN(C)CCOCC(O)c1ccc(Cl)c(Cl)c1 (centres unmarked) [compound 34] | 221% | no death case | 26% |  | 
5 | OC(COCCN1CCCCC1)c1ccc(Cl)c(Cl)c1 (centres unmarked) [compound 37] | 148% |  | 45% |  | 
6 | CN(C)CCOCC(O)c1ccc(F)cc1 (centres unmarked) [compound 38] |  | no death case | 36% |  | 
7 | CN(C)CCOCC(O)c1cccc([N+](=O)[O-])c1 (centres unmarked) [compound 40] |  | no death case | 26% |  | 
8 | CN(C)CCOCC(O)c1cccc(OCc2ccccc2)c1 (centres unmarked) [compound 47] |  |  | 38% | 165% | 
9 | COc1ccc(-c2ccc(C(O)COCCN(C)C)cc2)cc1 (centres unmarked) [compound 55] | 207% |  | 22% |  | 
10 | CN(C)CCOCC(O)c1cccc(Cc2ccccc2)c1 (centres unmarked) [compound 58] | 133% |  | 45% |  | 
11 | Cc1cccc(C(O)COCCC2CCN(Cc3ccccc3)CC2)c1 (centres unmarked) [compound 61] |  |  | 89% | 184% | 
12 | OC(COCCC1CCN(Cc2ccccc2)CC1)c1ccc(F)cc1 (centres unmarked) [compound 62] | 127% |  | 78% |  | 
13 | Cc1ccccc1-c1ccc(C(O)COCCN(C)C)cc1 (centres unmarked) [compound 65] |  | no death case | 62% |  | 
14 | CN(C)CCOCC(O)c1ccc(Oc2ccc(F)cc2)cc1 (centres unmarked) [compound 67] |  | no death case | 90% | 247% | 
15 | CN(C)CCOCC(O)c1ccc(Oc2ccccc2Cl)cc1 (centres unmarked) [compound 70] |  | no death case | 91% |  | 
16 | COc1ccc(Oc2ccc(C(O)COCCN(C)C)cc2)cc1 (centres unmarked) [compound 71] | 147% | no death case | 87% |  | 
17 | Cc1ccc(Oc2ccc(C(O)COCCN(C)C)cc2)cc1 (centres unmarked) [compound 83] |  |  | 93% | 177% | 
18 | CN(C)CCOCC(O)c1ccc(OCc2ccncc2)cc1 (centres unmarked) [compound 86] |  |  | 50% | 130% | 
19 | CN(C)CCOCC(O)c1ccc(CCc2ccccc2)cc1 (centres unmarked) [compound 89] |  |  | 44% | 156% | 
20 | CN(C)CCOCC(O)c1ccc(OCc2cccc(Cl)c2)cc1 (centres unmarked) [compound 97] |  |  | 38% | 138% | 

Row | SMILES | response vs control in vivo at 100 mg/kg [1, 4] | Acute toxicity [2] | inhibition at 10 µg/mL [3, 5] | response vs control in vivo at 100 mg/kg [1, 6] | also measured
21 | CN(C)CCOCC(O)c1cccc(NS(=O)(=O)c2ccccc2)c1 (centres unmarked) [compound 182] |  | no death case | 38% |  | 
22 | CC(=O)OC(COCCN(C)C)c1cccc(OC(=O)Nc2cccc(Cl)c2)c1.Cl (centres unmarked) [compound 190, 1-acetoxy-1-[3-(3-chlorophenylcarbamoyloxy)phenyl]-2-[2-(N,N-dimethylamino)ethoxy]ethane hydrochloride] |  | no death case |  |  | inhibition at 10 µg/mL [3]: 76%
23 | CN(C)CCOCC(O)c1ccc(SCc2ccccc2)cc1 (centres unmarked) [compound 222, 1-(4-benzylthiophenyl)-2-[2-(N,N-dimethylamino)ethoxy]ethanol hydrochloride] |  |  | 83% |  | response vs control in vivo at 100 mg/kg ([1]; 0.5 h): 152%
24 | CN(C)CCOCC(O)c1ccc(S(=O)(=O)Cc2ccccc2)cc1 (centres unmarked) [compound 223] |  |  | 74% | 149% | 
25 | CN(C)CCOCC(O)c1ccc(-c2cccs2)cc1 (centres unmarked) [compound 224] | 155% |  | 36% |  | 
26 | CN(C)CCOCC(O)c1cccc2ccccc12 (centres unmarked) [compound 228, 2-[2-(N,N-dimethylamino)ethoxy]-1-(1-naphthyl)ethanol hydrochloride] |  |  | 30% |  | response vs control in vivo at 100 mg/kg ([1]; 1 h): 144%
27 | CN(C)CCOCC(O)c1ccc(Cl)c2ccccc12 (centres unmarked) [compound 230] | 177% |  | 25% |  | 
28 | OC(COCCN1CCCCC1)c1cccc2ccccc12 (centres unmarked) [compound 237] | 149% |  | 44% |  | 
29 | COc1ccc(C(O)COCCN(C)C)c2ccccc12 (centres unmarked) [compound 239] | 150% |  | 22% |  | 
30 | CN(C)CCOCC(O)c1cccc2ccc(Cl)cc12 (centres unmarked) [compound 246] | 128% |  | 30% |  | 
31 | CN(C)CCOCC(O)c1cccc2cccc(Cl)c12 (centres unmarked) [compound 247] | 124% |  | 26% |  | 
32 | O=C(c1ccc(F)cc1)C1CCN(CCOCC(O)c2cccc3ccccc23)CC1 (centres unmarked) [compound 260, 2-{2-[4-(p-fluorobenzoyl)piperidin-1-yl]ethoxy}-1-(1-naphthyl)ethanol hydrochloride] |  |  | 43% |  | response vs control in vivo at 100 mg/kg ([1]; 1 h): 124%
33 | OC(COCCN1CCN(Cc2ccccc2)CC1)c1cccc2ccccc12 (centres unmarked) [compound 302] |  |  | 38% | 182% | 
34 | CN(C)CCOCC(O)c1ccc2ncccc2c1 (centres unmarked) [compound 319] |  | no death case | 30% |  | 
35 | CN(C)CCCOCC(O)c1ccc2sccc2c1 (centres unmarked) [compound 336] |  |  | 21% | 224% | 
36 | OC(COCCC1CCN(Cc2ccccc2)CC1)c1ccc2sccc2c1 (centres unmarked) [compound 342] |  |  | 67% | 157% | 
37 | O=C(c1ccc(F)cc1)C1CCN(CCOCC(O)c2ccc3sccc3c2)CC1 (centres unmarked) [compound 350] |  |  | 42% | 147% | 
38 | CNc1nc(Cl)c(C(O)COCCN(C)C)cc1F (centres unmarked) [compound 377] |  | no death case | 23% | 221% | 
39 | CN(C)CCOCC(O)c1ccc([N+](=O)[O-])s1 (centres unmarked) [compound 405, 1-(5-nitro-2-thienyl)-2-[2-(N,N-dimethylamino)ethoxy]ethanol] |  |  | 59% | 137% | 
